Structures can show the parent of a compound that is named as a salt.
Key:
[1] = tested on: IL-1β; assay: IL-1β secretion by TLRs-L-stimulated mouse whole spleen lymphocytes (ELISA); type: cell-based; details: Lymphocyte, 48 h, read-out: IB-1β IC50
Procedure: (§1) BALB/c mice were sacrificed by cervical dislocation, and spleens were aseptically excised to prepare whole spleen lymphocytes. The cells were adjusted to 5×10^6 cells/ml. Hydroxychloroquine sulfate was diluted with a 3-fold gradient into 3 concentrations starting from 30 μM: 30, 10 and 3 μM; naphthoquine phosphate was diluted with a 3-fold gradient into 3 concentrations starting from 10 μM: 10, 3 and 1 μM.
(§2) Mouse spleen lymphocytes were inoculated into a 96-well plate at 100 μl/well, and the stimulant TLR4-L (final concentration: 10 μg/ml), TLR7-L (final concentration: 5 μg/ml) or TLR9-L (final concentration: 1 μM) and the compounds diluted with the above concentration gradients were added. A corresponding stimulation control and a cell control (without stimulation) were set up. The cells were cultured in a 37° C., 5% CO2 incubator for 48 hours. After the end of the culture, the cell culture supernatants were collected, and the levels of IL-1β, IL-6, and IL-10 were measured by ELISA.

[2] = tested on: bovine type II collagen-induced arthritis in mice; assay: Bovine type II collagen-induced arthritis in mice: arthritis scoring and hindfoot thickness; type: in vivo, mouse
Procedure: (§3) Normal group, model group, positive medicament (1 mg/kg dexamethasone) group, naphthoquine phosphate (25, 50, 100 mg/kg) groups, hydroxychloroquine sulfate (100 mg/kg) group.
(§4) 10 mg of Type II Collagen (CII) was swollen in 2.5 ml of 0.1 mol/L glacial acetic acid to prepare a 4 mg/ml CII solution. This solution was fully emulsified with an equal volume of CFA, and injected subcutaneously (50 μl) at the base of the tail of mice. After 21 days, 4 mg/ml CII solution was fully emulsified with an equal volume of IFA. This mixture was injected subcutaneously (50 μL) at the base of the tail of mice to boost the immune response.
The severity of arthritis was scored by observing joint lesions of limbs of mice. Detectable arthritis accompanied by erythema in one or more fingers was scored as 1 point, moderate redness and swelling from the ankle joint to the middle of the foot was scored as 2 points, severe redness and swelling from the ankle joint to the fingers was scored as 3 points, and severe swelling with ankylosis was scored as 4 points. During scoring, bilateral hindfoot thickness was measured.

[3] = tested on: IL-6; assay: IL-6 production by LPS-induced RAW264.7 cells (ELISA); type: cell-based, mouse; details: for production of IL-6: LPS-induced RAW264.7, in words; for IC50: Mus musculus, LPS 10 μg/ml, RAW264.7
Procedure: (§5) RAW264.7 cells were inoculated into a 96-well plate at 1×10^5/well and allowed to adhere to the wall for 6 hours in a 37° C., 5% CO2 incubator. […] After the cells adhered to the wall, the stimulant LPS (final concentration: 10 μg/ml) and the gradient-diluted compounds were added. A corresponding stimulation control and a cell control (without stimulation) were set up. After the end of the culture, the cell culture supernatants were collected, and the levels of TNF-α, IL-1β and IL-6 were measured by ELISA.

[4] = tested on: IL-1β; assay: IL-1β production by LPS-induced RAW264.7 cells (ELISA); type: cell-based, mouse; details: for IC50: Mus musculus, LPS 10 μg/ml, RAW264.7, read-out: IB-1β IC50; for production of LPS-induced IL-1β: RAW264.7, in words
Procedure: as §5

[5] = tested on: purified mouse B cells; assay: B cell proliferation assay, TLRs-L-stimulated purified mouse B cells (3H-TdR); type: cell-based; details: for IC50: Mus musculus, B-cell, 48 h, purified B cells, stimulant TLR4-L 10 μg/ml; for proliferation of purified mouse splenic B cells and production of inflammatory cytokines and antibodies induced by specific TLR signals: in words
Procedure: (§6) BALB/c mice were sacrificed by cervical dislocation, and spleens were aseptically excised to prepare spleen lymphocytes. The cells were adjusted to 1×10^8 cells/ml, blocked with 2.4G2 (final concentration: 10 μg/ml) for 20 min, cultured with PE-CD19 (final concentration: 5 μg/ml) for 20 min, washed with MACS buffer, centrifuged at 4° C., 300G for 10 min, 100 μl anti-PE beads were added per 1×10^8 cells, incubated with 900 μl MACS buffer for 15 min, washed with MACS buffer, centrifuged at 4° C., 300G for 10 min. The supernatant was discarded. 500 μl MACS buffer was added per 1×10^8 cells to resuspend the cells. MACS column was used for separation. Magnetically labeled cells were retained on the column. The MACS column was removed from the magnetic field and then eluted.
Hydroxychloroquine sulfate was diluted 2-fold into 3 concentrations starting from 8 μM: 8, 4 and 2 μM. Naphthoquine phosphate was diluted 2-fold into 3 concentrations starting from 0.5: 0.5, 0.25 and 0.125 μM. A suspension of purified mouse B cells was inoculated into a 96-well plate at 4×10^5/well, and the stimulant TLR4-L (final concentration: 10 μg/ml), TLR7-L (final concentration: 5 μg/ml) or TLR9-L (final concentration: 1 μM) and the gradient diluted compounds were added. A corresponding stimulation control and a cell control (without stimulation) were set up. The cells were cultured in 37° C., 5% CO2 incubator for 48 hours. Eight hours before the end of the culture, ^3H-TdR was added, and the culture was continued until the end of the experiment. The cells were collected onto glass fiber membranes using a cell collector. 5 ml scintillation fluid was added, and the values of radioactive counts per minute were read on a Beta counter (2450 Microplate Counter, PerkinElmer).

[6] = tested on: IL-6; assay: IL-6 secretion by TLRs-L-stimulated mouse whole spleen lymphocytes (ELISA); type: cell-based; details: Lymphocyte, 48 h
Procedure: as §1, §2

[7] = tested on: bovine type II collagen-induced arthritis in mice; assay: Bone morphological analysis by Micro-CT in arthritic mice; type: in vivo, mouse; details: intragastric, FIG. 5
Procedure: as §3, §4
Three-dimensional reconstruction was performed by the micro-CT technology, and bone morphology analysis was performed by professional analysis software.

[8] = Cytotoxicity (CC50) on mouse whole spleen lymphocytes, Example 3; type: cell-based; details: BALB/c; mouse whole spleen lymphocytes (Tables 3 and 4)
Procedure: as §1

[9] = tested on: IgM; assay: IgM secretion by TLRs-L-stimulated purified mouse B cells (ELISA); type: cell-based; details: B-cell, 120 h, stimulant TLR4-L 10 μg/ml
Procedure: as §6
A suspension of purified mouse B cells was inoculated into a 96-well plate at 4×10^5/well. Hydroxychloroquine sulfate was diluted with a 2-fold gradient into 3 concentrations, starting from 8 μM: 8, 4 and 2 μM. Naphthoquine phosphate was diluted with a 2-fold gradient into 3 concentrations starting from 0.5 μM.: 0.5, 0.25 and 0.125 μM. […] After the end of the culture, the cell culture supernatants were collected, and the levels of IgG and IgM were measured by ELISA.

IC50 ([1]; stimulant TLR4-L 10 μg/ml) [µM]	IC50 [3] [µM]	IC50 [4] [µM]	IC50 ([6]; stimulant TLR4-L 10 μg/ml) [µM]	IC50 ([6]; stimulant TLR7-L 5 μg/ml) [µM]	IC50 ([6]; stimulant TLR9-L 1 μM) [µM]	IC50 [9] [µM]	IC50 ([1]; stimulant TLR9-L 1 μM) [µM]	Compound	arthritis scores of model mice ([2]; intragastric, 25, 50, 100 mg/kg, FIG. 1, vs model group)	foot swelling in arthritic mice ([2]; intragastric, FIG. 2)	therapeutic effect on arthritis scores compared with hydroxychloroquine sulfate ([2]; same dose (100 mg/kg), FIG. 1)	production of IL-6 [3]	production of LPS-induced IL-1β [4]	IC50 [5] [µM]	proliferation of purified mouse splenic B cells and production of inflammatory cytokines and antibodies induced by specific TLR signals [5]	bone damage in model mice (Micro-CT) [7]	CC50 [8] [µM]
3.35	> 10	1.59	0.63	0.007	0.29	0.21	–	CC(C)(C)NCc1cc(Nc2ccnc3cc(Cl)ccc23)c2c(c1O)CCCC2.O=P(O)(O)O.O=P(O)(O)O [Naphthoquine Phosphate, Naphthoquine phosphate]	significantly reduced	improved	superior to that of hydroxychloroquine sulfate at the same dose	no significant effect	significantly inhibited	0.19	inhibited	inhibited	1.59
32	16.5	3.5	15.3	1.91	3.92	> 8	41.6	CCN(CCO)CCCC(C)Nc1ccnc2cc(Cl)ccc12 (centres unmarked) [Hydroxychloroquine Sulfate, hydroxychloroquine sulfate]	–	–	–	no significant effect	significantly inhibited	9.95	inhibited	–	26.9

From US20250332154A1, “USE OF NAPHTHOQUINE PHOSPHATE IN PREPARATION OF A MEDICAMENT FOR TREATING AUTOIMMUNE DISEASES” (SHANGHAI PHARMACEUTICALS INDUSTRY CO., LTD, priority 2022, published 2025)
